Reference: US7037489B2, “Skin external agents and drugs” (Kanebo Cosmetics, Inc., priority 1999, dated 2006)
Counter-ions that a name gives are not always drawn.

What was measured:
HB-EGF mRNA = assay: Test Example 4 HB-EGF expression rate in keratinocytes (Northern blotting); type: cell-based, human; details: for Amount of mRNA, % relative to the control, HB-EGF: 24 hours, human keratinocytes
Description: (§1) The HB-EGF expression rates were investigated by the following test methods where the compounds of the present invention were applied on the keratinocytes. Cultured keratinocytes of human epidermis origin, commercially available from Kurabo Corporation, were used. Keratinocyte susupension was adjusted to a concentration of 400×10^4 units/mL on an MCDB153 culture medium supplemented with BPE (bovine pituitary extract), insulin, ethanolamine, phosphoethanolamine, and hydrocortisone as growth promotors. Four milliliters of the cell suspension was inoculated to a 60 mm plate (ex Falcon Corporation). […] This plate was subjected to static culturing at 37° C. for 24 hours under an atmosphere consisting of 95% (v/v) air and 5% (v/v) carbon dioxide gas. Using a QIAGEN™ RNA kit, whole mRNA was extracted. […] The amount of each mRNA per total in the absence of the fumarate was measured as the control. The amount of mRNA in the presence of the fumarate was expressed in % relative to those of the control.

G3PDH mRNA [1] = assay: Test Example 6 G3PDH mRNA in keratinocytes; type: cell-based; details: 24 hours, human keratinocytes
Description: (§2) The amount of expression of amphiregulin in the keratinocytes was determined by the following test method. Cultured keratinocytes of human epidermis origin (ex Kurabo Corporation) were used. Keratinocyte suspension was adjusted to a concentration of 150×10^4 units/mL in an MCDB153 culture medium supplemented with BPE (bovine pituitary extract), insulin, ethanolamine, phosphoethanolamine, and hydrocortisone as growth promotors. Four milliliters of the cell suspension was inoculated to a 60 mm plate (ex Falcon Corporation). […] This plate was subjected to static culturing at 37° C. for 24 hours under an atmosphere consisting of 95% (v/v) air and 5% (v/v) carbon dioxide gas. Using a QIAGEN™ RNA kit, whole mRNA was extracted. […] The amount of each mRNA per total in the absence of the fumarate was measured as the control. The amount of mRNA in the presence of the fumarate was expressed in % relative to those of the control. (2) Results

[2] = test system: hairless mouse dorsal skin (epidermal permeability barrier function disrupted by UVB); assay: Test 1 epidermal permeability barrier function amelioration test (TEWL after UVB); type: in vivo, hairless mice (Hos: Hr-1); details: for TEWL change rate 3rd day / TEWL change rate 4th day: mean values
Description: An effect of improving epidermal permeability barrier function by applying the agents on the skin of which epidermal permeability barrier function has been disrupted was evaluated by the following test method. Male hairless mice (Hos: Hr-1) of 10 weeks old at the beginning of the test were used with each 5 mice per group. Transepidermal water loss (TEWL) was measured as follows using a continuous perspiration measurement device, Hydrograph AMU-100 (ex K & S Co., Ltd.). […] The amount of water vapor in the nitrogen gas was measured before the gas was fed to the capsule and after it was recovered from the capsule. […] The TEWL of the hairless mouse dorsal skin was first measured at the beginning of the test. Subsequently, 0.05 mL of each sample was applied on an area of approximately 2.5 cm diameter in the dorsal skin of the hairless mice once a day from Monday to Friday (pre-application). Then, on the third day from the last day of the pre-application, the skin was irradiated once with ultraviolet B ray (UVB) at a dose of 0.15 J/cm^2. […] TEWL changes with the degree of disruption of the epidermal permeability barrier function. A higher value of TEWL change rate implies a greater degree of disruption of the epidermal permeability barrier function. In the case of the application of the base alone, disruption in the epidermal permeability barrier function by UVB was similar to that in the case of non-application.

G3PDH mRNA [3] = assay: Test Example 4 G3PDH mRNA in keratinocytes (Northern blotting); type: cell-based; details: 24 hours, human keratinocytes
Description: as §1

[4] = test system: dorsal skin of hairless mice; assay: Test Example 8 inhibition of dry skin induced by retinoic acid (TEWL); type: in vivo
Description: The effect of inhibiting dry skin was investigated by the following test method in which the present fumarate was applied to the dry skin induced by retinoic acid. Hairless mice of 10 weeks old at the beginning of the test were used with five mice per group. […] Subsequently, 0.05 mL of a 0.05% retinoic acid solution in 50% ethanol aqueous solution was applied once a day for 4 days. During these 4 days, retinoic acid was applied in the morning, and, some hours later in the afternoon, the sample was applied. […] In Comparative Example 5, a control sample comprising the base alone was used instead of the sample. In Comparative Example 6, the base was always applied. The TEWL values after the application of the samples are as shown below.

amphiregulin mRNA [5] = assay: Test Example 6 inhibition of the expression of amphiregulin in keratinocytes; type: cell-based; details: 24 hours, human keratinocytes
Description: as §2

[6] = test system: dorsal skin of hairless mice; assay: Test Example 9 depression of UV-induced epidermal hyperproliferation; type: in vivo; details: 0.5% in 50% ethanol, 4 weeks pre-application, UVB 0.15 J/cm^2, 4th day after the irradiation; mean values
Description: The inhibition of epidermal hyperproliferation was investigated by the following test method in which the present fumarate was applied to the skin where epidermal hyperproliferation had been induced by UV irradiation Hairless mice of 10 weeks old at the beginning of the test were used with 5 mice per group. […] The animals were slaughtered on the 4th day after the irradiation and skin section were made. From the section, tissue section samples were prepared by HE staining. The samples prepared were photographed using an light microscope. In the microscopic photographs, the thickness of the epidermis was measured. Using the epidermis thickness at the beginning of the test as a standard, the mean values were compared between the control group and the treated groups.

[7] = test system: dorsal skin of aged hairless mice
Description: The following test method was used in order to investigate inhibition of reduction in the epidermis thickness when the compound of the present invention was applied on aged skin.
Experimental animals used included 2 groups of aged hairless mice of 33 weeks old at the beginning of the test with each 5 mice per group, and one group of 5 hairless mice of 9 weeks old at the beginning of the test.
A sample was prepared by adding bis(diethylene glycol monoethyl ether) fumarate to a 50% ethanol aqueous solution (base) at a concentration of 0.5%. This sample was applied in an amount of 0.05 mL on the dorsal skin of hairless mice (in a diameter of approximately 2.5 cm) once a day for consecutive 5 days per week followed by 2 days interval. This schedule was repeated for 4 weeks. Subsequently, a portion of the skin was sampled and a frozen section was prepared. The thickness of the epidermis was measured by microscopic observation.

[8] = test system: skin of Hartley strain guinea pig; assay: Test 2 safety (sensitization) maximization test; type: in vivo; details: for Positivity: 3% induction, examined after 48 hours; for sensitizing potential: in words
Description: Safety (sensitization) was evaluated by a maximization test. An area of 4×6 cm^2 of skin on the scapula of a Hartley strain guinea pig (female) weighing 350 to 400 g was shaved and given intradermal injections with each three injections in two lines according to the following procedures: • (1)each 0.05 mL of Freunds' Complete Adjuvant (hereinafter simply called FCA) was intradermally injected at each one spot in the right and left sites. • (2) each 0.05 mL of a 3% fumaric acid diester derivative solution in ethanol of as a test sample was intradermally injected at another each one spot in the right and left sites. • (3) to a 6% fumaric acid diester derivative solution in FCA as a test sample, the same amount of sterilized water was added and resultant emulsified solution was intradermally injected at a right side and a left side sites in an amount of 0.05 mL.
At one week after the aforementioned procedures, the skin of the same sites was shaved and 10% of sodium lauryl sulfate in vaseline was applied to cause light inflammation. After 24 hours from the application, 0.2 mL of a 3% fumaric diester derivative solution in ethanol as a test sample, which was applied on a piece of gauze, was patched close on the same sites for 48 hours. On the 21st day after the intradermal injection, the abdominal area was shaved, to which a solution of a fumaric acid diester derivative in ethanolas a test sample, which was applied in a piece of gauze, was patched close for 24 hours. The symptoms in the skin were visually examined according to the following criteria after 48 hours.

amphiregulin mRNA [9] = assay: Test Example 7 inhibition of amphiregulin expression when used together with retinoic acid; type: cell-based, human; details: retinoic acid alone 1 μmol/L, 24 hours
Description: (§3) The amount of amphireglurin expression in the presence of retinoic acid in the keratinocytes was determined by the following method.
(§4) Cultured keratinocytes of human epidermis origin (ex Kurabo Corporation) were used.
(§5) Keratinocyte suspensions was adjusted to a concentration of 400×10^4 units/mL in an MCDB153 culture medium supplemented with BPE (bovine pituitary extract), insulin, ethanolamine, phosphoethanolamine, and hydrocortisone as growth promotors. Four milliliters of the cell suspension was inoculated to a 60 mm plate (ex Falcon Corporation). Under an atmosphere of 95% (v/v) air and 5% (v/v) carbon dioxide gas, a confluent state was achieved by static culturing at 37° C. for 3 days, while refreshing the culture every other day.
(§6) After removing the culture medium supernatant by suction, the culture medium was replaced with an MCDB 153 culture medium (containing insulin) to which bis(diethylene glycol monoethyl ether) fumarate at a final concentration of 300 μmol/L or dimethyl fumarate at 70 μmol/L, and optionally retinoic acid at 1 μmol/L had been added. This plate was subjected to static culturing at 37° C. for 24 hours under an atmosphere consisting of 95%(v/v) air and 5% (v/v) carbon dioxide gas. Using a QIAGEN™ RNA kit, whole mRNA was extracted.

G3PDH mRNA [10] = assay: Test Example 7 G3PDH mRNA in keratinocytes with retinoic acid; type: cell-based, human; details: retinoic acid alone 1 μmol/L, 24 hours
Description: as §3, §4, §5, §6

[11] = Table 1, concentration 1% in 50% aqueous ethanol, 0.05 mL once a day, 3rd day after UVB 0.15 J/cm^2
[12] = Table 1, concentration 1% in 50% aqueous ethanol, 4th day after UVB 0.15 J/cm^2
[13] = 0.5% sample 5 days pre-application, then 0.05% retinoic acid once a day for 4 days with sample in the afternoon

COC(=O)/C=C/C(=O)OC [Dimethyl fumarate, reference compound]
Amount of mRNA, % relative to the control, HB-EGF (HB-EGF mRNA; 50 μmol/L): 470% | Amount of mRNA, % relative to the control, G3PDH (G3PDH mRNA [1]; 70 μmol/L): 98% | TEWL change rate 3rd day [2, 11]: 3.24 | TEWL change rate 4th day [2, 12]: 2.50 | Amount of mRNA, % relative to the control, G3PDH (G3PDH mRNA [3]; 50 μmol/L): 105% | Mean value of TEWL [4, 13]: 0.063 mg/cm^2/min. | Amount of mRNA, % relative to the control, Amphiregulin (amphiregulin mRNA [5]; 70 μmol/L): 39% | Thickness of the epidermis [6]: 40.4 μm

Diphenylethyl fumarate [reference compound]
TEWL change rate 3rd day ([2]; Table 1, concentration printed '.1I' %, 3rd day after UVB): 7.82 | TEWL change rate 4th day ([2]; Table 1, concentration printed '.1I' %, 4th day after UVB): 6.57

CCOCCOCCOC(=O)/C=C/C(=O)OCCOCCOCC [bis(diethylene glycol monoethyl ether) fumarate]
Amount of mRNA, % relative to the control, HB-EGF (HB-EGF mRNA; 300 μmol/L): 380% | induction of HB-EGF expression (HB-EGF mRNA; in words, 300 μmol/L): induced the expression of HB-EGF as strongly as dimethyl fumarate | Amount of mRNA, % relative to the control, G3PDH (G3PDH mRNA [1]; 300 μmol/L): 102% | Mean values of the epidermis thickness ([7]; 33 weeks old hairless mice, 0.5% in 50% ethanol, 0.05 mL once a day 5 days per week for 4 weeks): 20.96 μm | inhibition of thinning of the epidermis due to aging ([7]; in words, compared to the non-treatment): thinning of the epidermis due to aging was clearly inhibited | TEWL change rate 3rd day [2, 11]: 3.25 | TEWL change rate 4th day [2, 12]: 2.49 | TEWL change rate 3rd day ([2]; Table 2, first value column, concentration 0.001%): 7.01 | TEWL change rate 3rd day ([2]; Table 2, first value column, concentration 0.01%): 6.46 | TEWL change rate 3rd day ([2]; Table 2, first value column, concentration 0.1%): 3.79 | TEWL change rate 3rd day ([2]; Table 2, first value column, concentration 1%): 3.62 | TEWL change rate 3rd day ([2]; Table 2, second value column, concentration 0.001%): 7.31 | TEWL change rate 3rd day ([2]; Table 2, second value column, concentration 0.01%): 6.84 | TEWL change rate 3rd day ([2]; Table 2, second value column, concentration 0.1%): 5.21 | TEWL change rate 3rd day ([2]; Table 2, second value column, concentration 1%): 4.33 | amelioration of epidermal permeability barrier function ([2]; in words, compared to the base alone and diphenylethyl fumarate): clearly reduces disruption in the epidermal permeability barrier function by UVB | Amount of mRNA, % relative to the control, G3PDH (G3PDH mRNA [3]; 300 μmol/L): 98% | Positivity [8]: 0% | sensitizing potential [8]: no sensitizing potential | Mean value of TEWL [4, 13]: 0.055 mg/cm^2/min. | Amount of mRNA, % relative to the control, Amphiregulin (amphiregulin mRNA [5]; 300 μmol/L): 8% | Thickness of the epidermis [6]: 61.6 μm

CCOC(=O)/C=C/C(=O)OCC [Diethyl fumarate]
Positivity [8]: 90% | sensitizing potential [8]: sensitizating potential

COCCOC(=O)/C=C/C(=O)OCCOC [bis(ethylene glycol monomethyl ether) fumarate]
Positivity [8]: 90% | sensitizing potential [8]: sensitizating potential

CC1=C(/C=C/C(C)=C/C=C/C(C)=C/C(=O)O)C(C)(C)CCC1 [Retinoic acid]
Amount of mRNA, % relative to the control, Amphiregulin (amphiregulin mRNA [9]): 300% | Mean value of TEWL ([4]; 0.05% retinoic acid once a day for 4 days, base alone instead of the sample (no fumarate)): 0.110 mg/cm^2/min. | Amount of mRNA, % relative to the control, G3PDH (G3PDH mRNA [10]): 105%
